Patent US11541084B2, “Method of promoting bone regrowth” (GENMONT BIOTECH INC., priority 2017, dated 2023)

Experiments:
Assay type in all cases: in vivo, mice (ICR female)
[1] = tested on: ovariectomized (OVX) mice; assay: Bone tissue analysis by micro computed tomography of the femur in the osteoporosis mouse model; settings: right femur, tube feed for 28 days, mean ±SD
Procedure: Experiment 1: Bone tissue analysis
(1) preparation of viable bacteria: Inoculating the Lactobacillus plantarum GMNL-662 from a frozen tube to 1 ml of MRS broth, and standing under 37° C. for aerobically incubating for 20 hours. The next day, adding 15 μl culture solution into 1.5 ml of MRS broth (1% secondary activation), and then standing under 37° C. for aerobically incubating for 20 hours. Estimating the bacteria number by using OD 600 to adjust the bacteria concentration to 8×10^7 CFU/ml.
(2) preparation of dead bacteria: Inoculating the Lactobacillus Plantarum strain GMNL-662 from a frozen tube to 1 ml of MRS broth, and standing under 37° C. for aerobically incubating for 20 hours. The next day, adding 15 μl culture solution into 1.5 ml of MRS broth (1% secondary activation), and then standing under 37° C. for aerobically incubating for 20 hours. Estimating the bacteria number by using OD 600 to adjust the bacteria concentration to 4.1×10^8 CFU/ml.
8-week-old ICR female […] were purchased from BioLASCO Taiwan and ovariectomy was performed when they were 9 week-old. Mice were underwent anesthesia and were ovariectomized through back on both sides of the ovaries. All groups were given the test substance by means of tube feed at 4 days after surgery. The groups were divided into a sham operation group (control group, their abdominal cavity were cut but their ovaries were not removed); and 4 groups ovariectomized group (Ovariectomy; OVX). When the mice were sacrificed, the ovarian tissues were checked and confirmed whether the removal of ovarian was successful. The experimental results of the mice under failure operation were not used. […] The mice were given 0.1 ml per 10 grams of body weight and 4 times a week. The remaining two groups were fed with 0.2 ml of alive GMNL-662 (strain concentration is 8×10^7 cfu/ml; daily dose of the mouse is 1.6×10^7 cfu/mouse, the human dose is 4×10^9 cfu/60 kg adult), and 0.2 ml of dead GMNL-662 (strain concentration is 4.1×10^8 cfu/ml; daily dose of the mouse is 8.2×10^7 cells/mouse, the human dose is 2×10^10 cells/60 kg adult). The two groups were fed with tube one time every day, continued for 28 days, the mice were anesthetized and sacrificed for intraperitoneal cephalic vein sampling, and each femur was removed for analysis.
The backbone of the right femur far from the end was taken a computer tomography by a micro computed tomography (SkyScan 1076, Kontizh, Belgium, with resolution of 18 μm), and the trabecular bone volume ratio (i.e. bone volume/tissue volume) is analyzed by a software. The analyzed position was selected to include the area of 100 pieces under the growth plate excluding cortical bone. The bone mineral density analysis was applied to the same area. The obtained data in the experiments were analyzed with two-way analysis of variance, and executed T-test statistical analysis. All data were presented as mean ±SD. After comparisons, the abovementioned groups were analyzed statistically and noted by different marks to represent the statistically significant differences (* represents p<0.05; ** represents p<0.01).

[2] = tested on: cytokine TGF-β; assay: Real-time PCR of bone cDNA from OVX mice: TGF-β expression; settings: bone RNA of OVX mice after 28 days of tube feed; compared with disease group (OVX+H2O)
Procedure: (§1) 8-week-old ICR female rats were purchased from BioLASCO Taiwan and ovariectomy was performed when they were 9 week-old. Mice were underwent anesthesia and were ovariectomized through back on both sides of the ovaries. All groups were given the test substance by means of tube feed at 4 days after surgery. The groups were divided into a sham operation group (control group, their abdominal cavity were cut but their ovaries were not removed); and 4 groups ovariectomized group (Ovariectomy; OVX). When the mice were sacrificed, the ovarian tissues were checked and confirmed whether the removal of ovarian was successful. The experimental results of the mice under failure operation were not used. […]
(§2) Extraction of tibial RNA: The left femur of the mice were removed, cut into small pieces with scissor, and an appropriate amount of liquid nitrogen was added to grind the bones quickly. […] The solution was placed at room temperature to react for 5 minutes, followed by centrifugalized and extracted the upper layer to new microcentrifuge tubes (eppendorf); 0.25 ml isopropanol was added thereto and the solution was placed at room temperature for 10 minutes and then centrifugalized; the supernatant was removed and the precipitate was washed with 0.5 ml 75% ethanol; after the precipitate was dried, 20-50 μl DEPC water was added to dissolve the precipitate and the RNA concentration was measured. […]

[3] = tested on: osteocalcin gene; assay: Real-time PCR of bone cDNA from OVX mice: osteocalcin expression; settings: bone RNA of OVX mice after 28 days of tube feed; compared with disease group (OVX+H2O)
Procedure: as §1, §2

[4] = tested on: osteoclast related gene TRAP-5; assay: Real-time PCR of bone cDNA from OVX mice: TRAP-5 expression; settings: bone RNA of OVX mice after 28 days of tube feed; compared with disease group (OVX+H2O)
Procedure: as §1, §2

[5] = * p<0.05, ** p<0.01, disease group OVX+H2O 0.344 ± 0.04, sham control 0.502 ± 0.04
[6] = * p<0.05, ** p<0.01, disease group OVX+H2O 30.9 ± 1.1, sham control 42.12 ± 2.4

For “Lactobacillus plantarum strain GMNL-662 [GMNL-662 dead]”, the “Femur bone mineral density (BMD, excluding cortical bone)” value (shortened to “Femur bone mineral density”) [1, 5] was 0.474 ± 0.01** g/cm^3, the “Femur bone mineral density” value ([1]; * p<0.05, ** p<0.01, disease group OVX+H2O 0.344 ± 0.04, sham control 0.502 ± 0.04, listed as dead GMNL-662) was “significantly higher” and the “Trabecular bone volume ratio (BV/TV, bone volume/tissue volume)” value [1, 6] was 36.8 ± 1.2** %. The “Trabecular bone volume ratio (BV/TV, bone volume/tissue volume)” value ([1]; * p<0.05, ** p<0.01, disease group OVX+H2O 30.9 ± 1.1, sham control 42.12 ± 2.4, listed as dead GMNL-662) was “higher than the disease group”, the “expression of cytokine TGF-β (relative to GAPDH), FIG. 1” value [2] was “significant increased expression” and the “expression of osteocalcin gene, FIG. 2” value [3] was “higher than the disease group”. For the same substance, the “expression of osteoclast related gene TRAP-5, FIG. 3” value [4] was “significantly lower”.
In the case of “Lactobacillus plantarum strain GMNL-662 [GMNL-662 alive]”, the “Femur bone mineral density” value [1, 5] is reported as 0.488 ± 0.02** g/cm^3, the “Femur bone mineral density” value ([1]; * p<0.05, ** p<0.01, disease group OVX+H2O 0.344 ± 0.04, sham control 0.502 ± 0.04, listed as alive GMNL-662) is reported as “significantly higher” and the “Trabecular bone volume ratio (BV/TV, bone volume/tissue volume)” value [1, 6] is reported as 36.92 ± 1.7** %. The “Trabecular bone volume ratio (BV/TV, bone volume/tissue volume)” value ([1]; * p<0.05, ** p<0.01, disease group OVX+H2O 30.9 ± 1.1, sham control 42.12 ± 2.4, listed as alive GMNL-662) was “higher than the disease group”, the “expression of cytokine TGF-β (relative to GAPDH), FIG. 1” value [2] was “significant increased expression” and the “expression of osteocalcin gene, FIG. 2” value [3] was “higher than the disease group”. For the same substance, the “expression of osteoclast related gene TRAP-5, FIG. 3” value [4] was “significantly lower”.
